Assay results taken from patent US8497089B2, “Method to predict toxicity using the analysis of dynamic organelle behaviour” (Innovative Concepts in Drug Development (ICDD), priority 2007, dated 2013).
Where a name gives a salt, the structure may show the parent alone.

Assays:
[1] = test system: primary human fibroblasts; assay: Variations of mitochondrial relationship with the cytoskeleton (area containing entwined mitochondria); conditions: area containing entwined mitochondria in percent of total cell area; FIG. 4 for paclitaxel
[2] = test system: primary human fibroblasts; assay: Variations of mitochondrial morphology (mitochondria length, doughnut formation); type: cell-based; conditions: 0.1 to 10 μM, in percent of the vehicle
Source text: Measured parameters can include, but are not restricted to, the length of the mitochondria allowing for an appreciation of the equilibrium between fusion and fission, the number of mitochondria in a doughnut shape per cell, the number of mitochondrial derived vesicle per cell and the number of mitochondria undergoing swelling/aggregation per cell.
(§1) Images were captured for 20-40 frames every 3-15 sec on a z scale spanning 1 μm around the initial center of focus. Z slides were reconstructed to generate a movie that was further analyzed for mitochondrial tracking, shape recognition, length measurements and intensities measurements.
Changes in mitochondrial morphology, i.e. in the mitochondria length and in the formation of doughnuts, were observed associated with compound toxicity in a dose dependent manner.
The mitochondria length and the formation of doughnuts are two parameters which indicate the dynamic modulation of the fission-fusion phenomenon that occurs in the mitochondria. When very short, the mitochondria cannot assume a doughnut shape anymore, thus making the loss of the doughnut shapes a signal very significant of a toxicity than cannot be compensate by the fission-fusion dynamics. When the equilibrium of fission-fusion is impaired the fragmentation of the mitochondria is associated with neurodegeneration (Knott et al., 2008).

[3] = test system: primary human fibroblasts; assay: Variations of mitochondrial motility; type: cell-based; conditions: 0.1 μM, 30 minutes to 16 hours at 37° C, vs vehicle; FIG. 2
Method: The speed of an organelle' movements is measured by the displacement in μm of this organelle within the lapse of two captured frames. This measure is repeated over the total length of the image capture. Speed can be expressed as an average velocity observed for an organelle over the duration of the capture or by the maximal velocity observed for an organelle over the same duration.
The amplitude of organelle movements is expressed as a variable of the frequency of bursts in the total displacement of one organelle. A burst is defined as a sudden displacement within 30% of the maximal displacements of an organelle during the period of capture.
The frequency of organelle movements is expressed as a number of periods during which the organelle remains immobile.
as §1
Mitochondrial displacement was assessed by the measure of the mitochondrial velocity, the amplitude of its movement and particularly the frequency of bursts and the frequency of movements represented by the periods of movement arrests (FIG. 2). […]

Structure (SMILES) | variation of mitochondrial relationship with the cytoskeleton [1] | variations of mitochondria length ([2]; FIG. 3A) | variations of the formation of doughnuts ([2]; FIG. 3B) | number of immobilization periods of mitochondria [3] | variations of the mitochondrial motility [3]
CC(=O)O[C@H]1C(=O)[C@@]2(C)[C@H]([C@H](OC(=O)c3ccccc3)[C@]3(O)C[C@H](OC(=O)[C@H](O)[C@@H](NC(=O)c4ccccc4)c4ccccc4)C(C)=C1C3(C)C)[C@]1(OC(C)=O)CO[C@@H]1C[C@@H]2O [paclitaxel] | affected the relationship of mitochondria with cytoskeleton in a dose-dependent manner | – | – | – | –
Cc1ccc(NC(=O)c2ccc(CN3CCN(C)CC3)cc2)cc1Nc1nccc(-c2cccnc2)n1 [imatinib mesylate] | did not induce any variation | induced variations | induced variations | increasing the number of immobilization periods of mitochondria | induced variations of the mitochondrial motility
